Assays:
[1] = test system: HCT-116; assay: Anticancer activity against human HCT-116 cells incubated for 48 hrs by MTT assay; type: functional, cell-based; conditions: HCT-116, 48 h
[2] = Selectivity index, ratio of IC50 for human WI-38 cells to IC50 for human H460 cells; type: toxicity; conditions: WI-38 cells versus H460 cells, read-out: Ratio IC50
[3] = test system: NCI-H460; assay: Induction of apoptosis in human NCI-H460 cells assessed as necrotic cells at 80 uM incubated for 48 hrs by Annexin V-FITC/PI staining based flow cytometry (reference value: 0.02 to 0.06 %); type: functional
[4] = test system: NCI-H460; assay: Induction of apoptosis in human NCI-H460 cells assessed as […] cells at 8 uM incubated for 48 hrs by Annexin V-FITC/PI staining based flow cytometry (reference value: 2.17 to 2.38 %); type: functional
[5] = Selectivity index, ratio of IC50 for human MCF-10A cells to IC50 for human SK-BR-3 cells; type: toxicity; conditions: MCF-10A cells versus SK-BR-3 cells, read-out: Ratio IC50
[6] = test system: HeLa; assay: Anticancer activity against human HeLa cells incubated for 48 hrs by MTT assay; type: functional, cell-based
[7] = test system: NCI-H460; assay: Induction of apoptosis in human NCI-H460 cells assessed as […] cells at 0.8 uM incubated for 48 hrs by Annexin V-FITC/PI staining based flow cytometry (reference value: 2.17 to 2.38 %); type: functional
[8] = test system: NCI-H460; assay: Induction of apoptosis in human NCI-H460 cells assessed as […] cells at 8 uM incubated for 48 hrs by Annexin V-FITC/PI staining based flow cytometry (reference value: 4.31 to 4.76 %); type: functional
[9] = test system: NCI-H460; assay: Induction of apoptosis in human NCI-H460 cells assessed as viable cells at 8 uM incubated for 48 hrs by Annexin V-FITC/PI staining based flow cytometry (reference value: 92.82 to 93.46 %); type: functional; conditions: read-out: Activity
[10] = test system: NCI-H460; assay: Induction of apoptosis in human NCI-H460 cells assessed as necrotic cells at 8 uM incubated for 48 hrs by Annexin V-FITC/PI staining based flow cytometry (reference value: 0.02 to 0.06 %); type: functional
[11] = test system: A549; assay: Anticancer activity against human A549 cells incubated for 48 hrs by MTT assay; type: functional, cell-based; conditions: A549, 48 h
[12] = test system: Huh-7; assay: Anticancer activity against human Huh-7 cells incubated for 48 hrs by MTT assay; type: functional, cell-based; conditions: Huh-7, 48 h
[13] = test system: NCI-H460; assay: Induction of apoptosis in human NCI-H460 cells assessed as total apoptotic cells at 0.8 uM incubated for 48 hrs by Annexin V-FITC/PI staining based flow cytometry (reference value: 6.85 %); type: functional
[14] = test system: NCI-H460; assay: Induction of apoptosis in human NCI-H460 cells assessed as necrotic cells at 0.8 uM incubated for 48 hrs by Annexin V-FITC/PI staining based flow cytometry (reference value: 0.02 to 0.06 %); type: functional
[15] = Cytotoxicity against human KGN cells incubated for 48 hrs by MTT assay; type: toxicity, cell-based
[16] = test system: NCI-H460; assay: Anticancer activity against human NCI-H460 cells incubated for 48 hrs by MTT assay; type: functional, cell-based; conditions: NCI-H460, 48 h
[17] = Cytotoxicity against human HEK-293T cells incubated for 48 hrs by MTT assay; type: toxicity, cell-based
[18] = test system: PC-9; assay: Anticancer activity against human PC-9 cells incubated for 48 hrs by MTT assay; type: functional, cell-based; conditions: PC-9, 48 h
[19] = test system: SK-OV-3; assay: Anticancer activity against human SK-OV-3 cells incubated for 48 hrs by MTT assay; type: functional, cell-based; conditions: SK-OV-3, 48 h
[20] = Selectivity index, ratio of IC50 for human WI-38 cells to IC50 for human Calu-1 cells; type: toxicity; conditions: WI-38 cells versus Calu-1 cells, read-out: Ratio IC50
[21] = test system: SK-BR-3; assay: Anticancer activity against human SK-BR-3 cells incubated for 48 hrs by MTT assay; type: functional, cell-based; conditions: SK-BR-3, 48 h
[22] = test system: NCI-H460; assay: Induction of apoptosis in human NCI-H460 cells assessed as total apoptotic cells at 80 uM incubated for 48 hrs by Annexin V-FITC/PI staining based flow cytometry (reference value: 6.85 %); type: functional
[23] = test system: NCI-H460; assay: Induction of apoptosis in human NCI-H460 cells assessed as […] cells at 0.8 uM incubated for 48 hrs by Annexin V-FITC/PI staining based flow cytometry (reference value: 4.31 to 4.76 %); type: functional
[24] = test system: NCI-H460; assay: Induction of apoptosis in human NCI-H460 cells assessed as […] cells at 80 uM incubated for 48 hrs by Annexin V-FITC/PI staining based flow cytometry (reference value: 4.31 to 4.76 %); type: functional
[25] = test system: NCI-H460; assay: Induction of apoptosis in human NCI-H460 cells assessed as viable cells at 80 uM incubated for 48 hrs by Annexin V-FITC/PI staining based flow cytometry (reference value: 92.82 to 93.46 %); type: functional; conditions: read-out: Activity
[26] = Cytotoxicity against human MCF-10A cells incubated for 48 hrs by MTT assay; type: toxicity, cell-based
[27] = Selectivity index, ratio of IC50 for human WI-38 cells to IC50 for human A549 cells; type: toxicity; conditions: WI-38 cells versus A549 cells, read-out: Ratio IC50
[28] = test system: NCI-H460; assay: Induction of apoptosis in human NCI-H460 cells assessed as total apoptotic cells at 8 uM incubated for 48 hrs by Annexin V-FITC/PI staining based flow cytometry (reference value: 6.85 %); type: functional
[29] = Cytotoxicity against human WI-38 cells incubated for 48 hrs by MTT assay; type: toxicity, cell-based
[30] = test system: NCI-H460; assay: Induction of apoptosis in human NCI-H460 cells assessed as […] cells at 80 uM incubated for 48 hrs by Annexin V-FITC/PI staining based flow cytometry (reference value: 2.17 to 2.38 %); type: functional
[31] = test system: 786-0; assay: Anticancer activity against human 786-0 cells incubated for 48 hrs by MTT assay; type: functional, cell-based; conditions: 786-0, 48 h
[32] = test system: Calu-1; assay: Anticancer activity against human Calu-1 cells incubated for 48 hrs by MTT assay; type: functional, cell-based; conditions: Calu-1, 48 h
[33] = test system: NCI-H460; assay: Induction of apoptosis in human NCI-H460 cells assessed as viable cells at 0.8 uM incubated for 48 hrs by Annexin V-FITC/PI staining based flow cytometry (reference value: 92.82 to 93.46 %); type: functional; conditions: read-out: Activity

COC1OC(=O)C(Cl)=C1N1CCN(C(=O)c2cc(OC(C)=O)c3c(c2)C(=O)c2cccc(OC(C)=O)c2C3=O)CC1 (centres undefined)
IC50 [1]: 13.8 µM
selectivity ratio [2]: 16
Activity [3]: 0.07%
Activity [4]: 18.88%
selectivity ratio [5]: 1
IC50 [6]: 30.5 µM
Activity [7]: 3.49%
Activity [8]: 18.14%
viability at 8 µM [9]: 61.1%
Activity [10]: 0.06%
IC50 [11]: 5.74 µM
IC50 [12]: 21 µM
Activity [13]: 9.38%
Activity [14]: 0.12%
IC50 at 48 h [15]: 76.4 µM
IC50 [16]: 4.35 µM
IC50 at 48 h [17]: 9.15 µM
IC50 [18]: 5.78 µM
IC50 [19]: 60.5 µM
selectivity ratio [20]: 5
IC50 [21]: 19.1 µM
Activity [22]: 56.57%
Activity [23]: 5.09%
Activity [24]: 25.81%
viability at 80 µM [25]: 42.6%
IC50 at 48 h [26]: 17 µM
selectivity ratio [27]: 12
Activity [28]: 37.72%
IC50 at 48 h [29]: 69.3 µM
Activity [30]: 29.91%
IC50 [31]: 20.7 µM
IC50 [32]: 15.4 µM
viability at 0.8 µM [33]: 89.5%

CC(=O)Oc1cccc2c1C(=O)c1c(OC(C)=O)cc(C(=O)N3CCN(C4=C(Br)C(=O)O[C@@H]4O[C@@H]4C[C@H](C)CC[C@H]4C(C)C)CC3)cc1C2=O
IC50 [11]: 46.9 µM
selectivity ratio [27]: 1
IC50 at 48 h [29]: 24.9 µM

CC(=O)Oc1cccc2c1C(=O)c1c(OC(C)=O)cc(C(=O)N3CCN(C4=C(Br)C(=O)OC4O[C@@H]4CC5CCC4(C)C5(C)C)CC3)cc1C2=O (some centres undefined)
IC50 [11]: 86.7 µM
selectivity ratio [27]: 1
IC50 at 48 h [29]: 43.1 µM

CC(C)[C@@H]1CC[C@@H](C)C[C@H]1O[C@H]1OC(=O)C(Cl)=C1N1CCN(C(=O)c2cc(O)c3c(c2)C(=O)c2cccc(O)c2C3=O)CC1
IC50 [11]: 46.5 µM
selectivity ratio [27]: 6
IC50 at 48 h [29]: 296 µM

CC(C)[C@@H]1CC[C@@H](C)C[C@H]1O[C@H]1OC(=O)C(Br)=C1N1CCN(C(=O)c2cc(O)c3c(c2)C(=O)c2cccc(O)c2C3=O)CC1
IC50 [11]: 117 µM
selectivity ratio [27]: 1
IC50 at 48 h [29]: 167 µM

CC(=O)Oc1cccc2c1C(=O)c1c(OC(C)=O)cc(C(=O)N3CCN(C4=C(Cl)C(=O)OC4O[C@@H]4CC5CCC4(C)C5(C)C)CC3)cc1C2=O (some centres undefined)
IC50 [11]: 69.1 µM
selectivity ratio [27]: 1
IC50 at 48 h [29]: 34.7 µM

CC1(C)C2CCC1(C)[C@H](OC1OC(=O)C(Cl)=C1N1CCN(C(=O)c3cc(O)c4c(c3)C(=O)c3cccc(O)c3C4=O)CC1)C2 (some centres undefined)
IC50 [11]: 106 µM
selectivity ratio [27]: 2
IC50 at 48 h [29]: 173 µM

COC1OC(=O)C(Br)=C1N1CCN(C(=O)c2cc(OC(C)=O)c3c(c2)C(=O)c2cccc(OC(C)=O)c2C3=O)CC1 (centres undefined)
IC50 [11]: 5.49 µM
selectivity ratio [27]: 7
IC50 at 48 h [29]: 39.1 µM

CC(=O)Oc1cccc2c1C(=O)c1c(OC(C)=O)cc(C(=O)N3CCN(C4=C(Cl)C(=O)O[C@@H]4O[C@@H]4C[C@H](C)CC[C@H]4C(C)C)CC3)cc1C2=O
IC50 [11]: 115 µM
selectivity ratio [27]: 1
IC50 at 48 h [29]: 66.3 µM

CC1(C)C2CCC1(C)[C@H](OC1OC(=O)C(Br)=C1N1CCN(C(=O)c3cc(O)c4c(c3)C(=O)c3cccc(O)c3C4=O)CC1)C2 (some centres undefined)
IC50 [11]: 112 µM
selectivity ratio [27]: 1
IC50 at 48 h [29]: 152 µM

Nc1ccn([C@@H]2O[C@H](CO)[C@@H](O)[C@@H]2O)c(=O)n1 [CYTARABINE]
selectivity ratio [27]: 2
IC50 at 48 h [29]: 493 µM

O=C(O)c1cc(O)c2c(c1)C(=O)c1cccc(O)c1C2=O [RHEIN]
IC50 [11]: 266 µM
selectivity ratio [27]: 1
